Tests used:
Test in all cases: pIC50, kinobeads binding competition
Conditions in all cases: cell material: Jurkat lysate
TRRAP = TRRAP (UniProt Q9Y4A5)
BLK = BLK (UniProt P51451)
PAK1 = PAK1 (UniProt Q13153)
AAK1 = AAK1 (UniProt Q2M2I8)
DYRK2 = target: T1, DYRK2 (UniProt Q92630)
T1 sequence (whole entry): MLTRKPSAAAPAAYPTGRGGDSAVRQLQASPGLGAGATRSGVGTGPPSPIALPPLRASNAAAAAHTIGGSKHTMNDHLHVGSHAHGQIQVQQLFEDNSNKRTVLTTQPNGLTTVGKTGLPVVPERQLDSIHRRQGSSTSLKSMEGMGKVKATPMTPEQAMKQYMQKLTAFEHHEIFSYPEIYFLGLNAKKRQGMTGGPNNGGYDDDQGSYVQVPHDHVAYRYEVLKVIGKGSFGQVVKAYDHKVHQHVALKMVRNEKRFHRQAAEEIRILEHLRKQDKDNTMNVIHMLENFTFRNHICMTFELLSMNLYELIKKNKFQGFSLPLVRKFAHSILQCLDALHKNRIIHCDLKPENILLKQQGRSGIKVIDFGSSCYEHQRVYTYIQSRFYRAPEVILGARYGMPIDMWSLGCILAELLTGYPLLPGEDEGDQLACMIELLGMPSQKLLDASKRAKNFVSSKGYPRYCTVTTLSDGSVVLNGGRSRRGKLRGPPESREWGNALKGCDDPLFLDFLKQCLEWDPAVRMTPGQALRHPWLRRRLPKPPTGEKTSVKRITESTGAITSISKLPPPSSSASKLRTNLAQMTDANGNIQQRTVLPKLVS

UniProt Q9UEE5 = target: T2, UniProt Q9UEE5
T2 sequence (whole entry): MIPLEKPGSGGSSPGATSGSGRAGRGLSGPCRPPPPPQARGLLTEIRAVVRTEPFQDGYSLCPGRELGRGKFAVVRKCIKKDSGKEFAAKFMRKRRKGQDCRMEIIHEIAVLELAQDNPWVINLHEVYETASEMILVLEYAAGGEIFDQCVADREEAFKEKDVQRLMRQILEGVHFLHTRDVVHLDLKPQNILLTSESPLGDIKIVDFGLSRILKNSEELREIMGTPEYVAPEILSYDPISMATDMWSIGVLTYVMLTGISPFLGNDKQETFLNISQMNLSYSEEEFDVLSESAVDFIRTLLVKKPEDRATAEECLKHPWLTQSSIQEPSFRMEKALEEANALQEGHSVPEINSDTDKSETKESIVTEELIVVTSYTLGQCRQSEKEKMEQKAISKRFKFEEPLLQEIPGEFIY

UniProt P25098 = target: T3, UniProt P25098
T3 sequence (whole entry): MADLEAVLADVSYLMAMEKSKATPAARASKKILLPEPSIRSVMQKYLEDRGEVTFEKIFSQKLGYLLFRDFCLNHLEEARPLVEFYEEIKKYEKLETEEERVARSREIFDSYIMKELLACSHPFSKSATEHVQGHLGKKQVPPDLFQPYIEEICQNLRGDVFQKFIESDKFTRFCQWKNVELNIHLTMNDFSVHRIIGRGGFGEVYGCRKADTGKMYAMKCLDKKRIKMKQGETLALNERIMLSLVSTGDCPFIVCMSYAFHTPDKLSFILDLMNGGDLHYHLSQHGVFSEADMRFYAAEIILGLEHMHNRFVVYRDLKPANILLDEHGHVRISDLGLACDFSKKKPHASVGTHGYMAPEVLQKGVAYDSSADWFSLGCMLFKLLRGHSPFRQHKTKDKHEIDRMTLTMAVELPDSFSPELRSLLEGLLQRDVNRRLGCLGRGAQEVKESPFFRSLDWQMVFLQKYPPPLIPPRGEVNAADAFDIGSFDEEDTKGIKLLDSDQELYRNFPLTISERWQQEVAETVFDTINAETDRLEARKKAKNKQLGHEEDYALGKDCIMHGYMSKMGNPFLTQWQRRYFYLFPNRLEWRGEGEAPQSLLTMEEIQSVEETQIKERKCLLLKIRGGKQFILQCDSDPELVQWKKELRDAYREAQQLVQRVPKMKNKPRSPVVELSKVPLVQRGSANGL

UniProt P07947 = target: UniProt P07947
Sequence of UniProt P07947 (P07947 whole entry, looked up): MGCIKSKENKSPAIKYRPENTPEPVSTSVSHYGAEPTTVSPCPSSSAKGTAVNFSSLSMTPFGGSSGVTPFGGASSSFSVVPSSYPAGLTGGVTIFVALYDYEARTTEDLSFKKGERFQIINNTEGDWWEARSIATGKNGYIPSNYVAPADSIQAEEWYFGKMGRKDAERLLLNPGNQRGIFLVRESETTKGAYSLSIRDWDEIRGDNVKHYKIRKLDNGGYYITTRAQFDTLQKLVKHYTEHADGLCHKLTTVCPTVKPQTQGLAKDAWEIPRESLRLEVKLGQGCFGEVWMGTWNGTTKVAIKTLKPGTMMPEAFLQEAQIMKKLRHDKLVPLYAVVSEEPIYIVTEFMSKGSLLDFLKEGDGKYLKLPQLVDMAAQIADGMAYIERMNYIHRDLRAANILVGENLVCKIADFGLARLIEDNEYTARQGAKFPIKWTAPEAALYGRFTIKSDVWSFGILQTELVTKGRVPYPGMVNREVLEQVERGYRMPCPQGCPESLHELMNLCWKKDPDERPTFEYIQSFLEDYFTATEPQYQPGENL

ABL2 = ABL2 (UniProt P42684)
Sequence of ABL2 (P42684 whole entry): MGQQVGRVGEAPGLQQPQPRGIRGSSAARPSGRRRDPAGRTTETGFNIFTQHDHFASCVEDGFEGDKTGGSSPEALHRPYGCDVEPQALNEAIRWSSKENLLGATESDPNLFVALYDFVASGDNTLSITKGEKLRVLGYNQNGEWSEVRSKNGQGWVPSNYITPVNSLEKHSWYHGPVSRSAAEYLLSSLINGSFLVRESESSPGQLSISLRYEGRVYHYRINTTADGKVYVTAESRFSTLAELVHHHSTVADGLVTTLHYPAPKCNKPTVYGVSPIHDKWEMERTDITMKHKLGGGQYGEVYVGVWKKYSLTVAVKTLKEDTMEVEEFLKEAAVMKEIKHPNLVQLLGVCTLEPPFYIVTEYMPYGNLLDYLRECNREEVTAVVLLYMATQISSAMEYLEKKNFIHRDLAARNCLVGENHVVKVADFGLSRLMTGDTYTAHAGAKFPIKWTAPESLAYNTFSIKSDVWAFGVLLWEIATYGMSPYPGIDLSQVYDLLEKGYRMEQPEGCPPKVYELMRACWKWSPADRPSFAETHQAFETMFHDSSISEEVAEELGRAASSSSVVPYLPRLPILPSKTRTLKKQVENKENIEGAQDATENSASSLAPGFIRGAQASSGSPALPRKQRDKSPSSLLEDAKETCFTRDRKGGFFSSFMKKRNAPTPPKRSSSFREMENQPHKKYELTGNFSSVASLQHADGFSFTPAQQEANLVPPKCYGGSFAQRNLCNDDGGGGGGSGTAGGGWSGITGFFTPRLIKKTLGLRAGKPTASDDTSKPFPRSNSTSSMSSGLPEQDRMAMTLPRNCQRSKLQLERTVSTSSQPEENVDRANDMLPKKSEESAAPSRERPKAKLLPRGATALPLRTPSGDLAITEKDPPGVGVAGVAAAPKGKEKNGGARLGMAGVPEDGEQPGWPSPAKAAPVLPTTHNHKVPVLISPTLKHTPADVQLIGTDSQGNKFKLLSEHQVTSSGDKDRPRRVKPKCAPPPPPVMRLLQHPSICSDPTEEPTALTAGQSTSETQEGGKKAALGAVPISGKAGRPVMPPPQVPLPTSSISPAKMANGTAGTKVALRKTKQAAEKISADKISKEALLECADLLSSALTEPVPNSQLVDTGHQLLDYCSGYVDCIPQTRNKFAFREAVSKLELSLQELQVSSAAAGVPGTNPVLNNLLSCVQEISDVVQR

PIP4K2A = target: T4, PIP4K2A (UniProt P48426)
T4 sequence (whole entry): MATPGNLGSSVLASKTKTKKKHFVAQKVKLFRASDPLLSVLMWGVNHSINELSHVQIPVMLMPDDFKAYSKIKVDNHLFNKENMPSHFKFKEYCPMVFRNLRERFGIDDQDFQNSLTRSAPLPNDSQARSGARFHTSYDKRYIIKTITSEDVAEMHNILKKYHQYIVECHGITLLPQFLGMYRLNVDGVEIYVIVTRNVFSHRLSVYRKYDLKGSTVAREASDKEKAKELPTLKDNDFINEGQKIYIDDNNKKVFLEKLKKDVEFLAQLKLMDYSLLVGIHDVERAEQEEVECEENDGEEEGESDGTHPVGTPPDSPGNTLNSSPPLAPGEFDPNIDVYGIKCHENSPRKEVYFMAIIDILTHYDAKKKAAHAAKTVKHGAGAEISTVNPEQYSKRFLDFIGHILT

RPS6KA4 = RPS6KA4 (UniProt O75676)
Sequence of RPS6KA4 (O75676 whole entry, looked up): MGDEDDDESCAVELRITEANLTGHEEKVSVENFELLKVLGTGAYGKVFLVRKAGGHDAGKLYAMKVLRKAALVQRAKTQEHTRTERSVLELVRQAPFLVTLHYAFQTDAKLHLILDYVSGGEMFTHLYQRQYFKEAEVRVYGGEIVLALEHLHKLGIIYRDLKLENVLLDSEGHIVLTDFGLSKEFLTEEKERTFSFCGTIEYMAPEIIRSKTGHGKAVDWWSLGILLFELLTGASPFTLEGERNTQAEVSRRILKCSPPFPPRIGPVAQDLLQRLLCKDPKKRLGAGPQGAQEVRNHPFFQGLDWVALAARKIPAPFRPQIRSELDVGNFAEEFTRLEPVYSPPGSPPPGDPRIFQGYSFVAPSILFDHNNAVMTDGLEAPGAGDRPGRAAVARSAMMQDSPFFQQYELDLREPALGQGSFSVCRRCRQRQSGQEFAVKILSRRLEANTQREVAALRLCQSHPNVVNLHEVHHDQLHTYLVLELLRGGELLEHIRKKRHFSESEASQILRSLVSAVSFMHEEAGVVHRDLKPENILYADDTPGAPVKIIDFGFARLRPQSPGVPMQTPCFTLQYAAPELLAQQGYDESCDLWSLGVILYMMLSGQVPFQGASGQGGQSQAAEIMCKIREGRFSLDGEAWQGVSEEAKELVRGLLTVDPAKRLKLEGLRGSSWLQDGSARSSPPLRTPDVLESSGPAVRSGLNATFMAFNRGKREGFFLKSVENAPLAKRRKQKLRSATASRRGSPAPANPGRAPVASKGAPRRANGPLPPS

TNIK = TNIK (UniProt Q9UKE5)
UniProt O75716 = target: UniProt O75716
Sequence of UniProt O75716 (O75716 whole entry): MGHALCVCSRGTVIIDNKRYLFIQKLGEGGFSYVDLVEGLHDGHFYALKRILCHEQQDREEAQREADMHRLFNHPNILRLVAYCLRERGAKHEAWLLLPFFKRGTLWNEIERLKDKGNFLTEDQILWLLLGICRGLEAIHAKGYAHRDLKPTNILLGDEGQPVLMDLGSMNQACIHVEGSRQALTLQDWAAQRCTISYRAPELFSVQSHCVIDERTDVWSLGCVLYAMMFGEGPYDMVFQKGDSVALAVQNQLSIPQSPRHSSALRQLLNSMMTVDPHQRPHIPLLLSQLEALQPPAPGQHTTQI

Sequence of AAK1 (Q2M2I8 whole entry, looked up): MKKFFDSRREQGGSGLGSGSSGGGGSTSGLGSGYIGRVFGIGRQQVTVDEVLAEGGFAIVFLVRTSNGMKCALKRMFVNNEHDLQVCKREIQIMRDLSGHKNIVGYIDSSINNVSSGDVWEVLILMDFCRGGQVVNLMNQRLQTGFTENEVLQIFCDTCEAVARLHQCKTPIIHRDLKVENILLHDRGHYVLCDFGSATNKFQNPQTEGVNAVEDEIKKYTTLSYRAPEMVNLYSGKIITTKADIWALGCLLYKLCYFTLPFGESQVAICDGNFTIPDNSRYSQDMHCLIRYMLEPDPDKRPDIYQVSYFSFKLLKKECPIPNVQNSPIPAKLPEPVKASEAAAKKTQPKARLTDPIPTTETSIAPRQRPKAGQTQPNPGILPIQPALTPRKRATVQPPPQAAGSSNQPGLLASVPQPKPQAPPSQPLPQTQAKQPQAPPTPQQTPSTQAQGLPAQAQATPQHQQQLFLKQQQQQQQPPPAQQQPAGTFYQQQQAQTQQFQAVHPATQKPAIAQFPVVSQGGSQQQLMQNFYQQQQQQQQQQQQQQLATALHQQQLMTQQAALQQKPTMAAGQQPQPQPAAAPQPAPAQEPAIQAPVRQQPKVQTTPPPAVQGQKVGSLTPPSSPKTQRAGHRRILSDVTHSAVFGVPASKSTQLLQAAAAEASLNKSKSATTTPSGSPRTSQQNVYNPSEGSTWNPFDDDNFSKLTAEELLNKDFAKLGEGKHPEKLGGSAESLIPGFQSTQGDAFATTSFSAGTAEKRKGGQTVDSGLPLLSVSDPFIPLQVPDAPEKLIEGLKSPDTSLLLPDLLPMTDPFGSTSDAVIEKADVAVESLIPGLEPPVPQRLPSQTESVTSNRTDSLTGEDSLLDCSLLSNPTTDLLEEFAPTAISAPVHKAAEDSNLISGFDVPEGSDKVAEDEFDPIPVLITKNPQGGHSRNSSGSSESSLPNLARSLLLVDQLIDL
Sequence of BLK (P51451 whole entry, looked up): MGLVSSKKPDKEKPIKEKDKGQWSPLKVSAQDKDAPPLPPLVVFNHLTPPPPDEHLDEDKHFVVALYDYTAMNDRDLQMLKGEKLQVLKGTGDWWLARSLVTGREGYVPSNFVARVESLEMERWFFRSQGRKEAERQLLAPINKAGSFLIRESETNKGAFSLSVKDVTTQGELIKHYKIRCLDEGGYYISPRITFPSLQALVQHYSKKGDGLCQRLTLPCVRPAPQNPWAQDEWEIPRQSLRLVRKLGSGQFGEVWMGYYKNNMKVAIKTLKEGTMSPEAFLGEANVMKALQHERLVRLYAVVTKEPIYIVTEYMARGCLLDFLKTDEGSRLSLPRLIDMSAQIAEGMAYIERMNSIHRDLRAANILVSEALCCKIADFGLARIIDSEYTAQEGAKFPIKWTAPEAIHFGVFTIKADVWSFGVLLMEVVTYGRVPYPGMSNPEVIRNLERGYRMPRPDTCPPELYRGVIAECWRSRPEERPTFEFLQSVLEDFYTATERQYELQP
Sequence of PAK1 (Q13153 whole entry): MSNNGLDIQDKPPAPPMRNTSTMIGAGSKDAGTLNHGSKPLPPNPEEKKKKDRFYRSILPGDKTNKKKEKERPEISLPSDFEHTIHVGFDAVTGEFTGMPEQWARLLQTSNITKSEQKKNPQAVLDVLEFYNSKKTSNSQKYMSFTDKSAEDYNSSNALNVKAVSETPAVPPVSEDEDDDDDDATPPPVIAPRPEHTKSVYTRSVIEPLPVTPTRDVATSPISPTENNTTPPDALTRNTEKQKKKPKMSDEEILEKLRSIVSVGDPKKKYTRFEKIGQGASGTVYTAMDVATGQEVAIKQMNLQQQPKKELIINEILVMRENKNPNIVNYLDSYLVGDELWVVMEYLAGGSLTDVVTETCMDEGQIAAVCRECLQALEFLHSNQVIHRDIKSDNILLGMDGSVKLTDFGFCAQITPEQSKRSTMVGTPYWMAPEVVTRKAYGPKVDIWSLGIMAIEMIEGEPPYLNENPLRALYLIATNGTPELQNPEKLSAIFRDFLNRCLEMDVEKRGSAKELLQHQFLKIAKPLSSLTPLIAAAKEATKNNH

pIC50 (TRRAP): < 4.52 | pIC50 (BLK): < 4.52 | pIC50 (PAK1): < 4.52 | pIC50 (AAK1): < 4.52 | pIC50 (DYRK2): < 4.52 | pIC50 (UniProt Q9UEE5): < 4.52 | pIC50 (UniProt P25098): < 4.52 | pIC50 (UniProt P07947): < 4.52 | pIC50 (ABL2): < 4.52 | pIC50 (PIP4K2A): < 4.52 | pIC50 (RPS6KA4): < 4.52 | pIC50 (TNIK): < 4.52 | pIC50 (UniProt O75716): < 4.52
Compound: CCc1cnn2c(NCc3ccc[n+]([O-])c3)cc(N3CCCC[C@H]3CCO)nc12 [dinaciclib]

Reference: the supplement of paper PMC12076712
